{"source": "patent US20210186943A1", "about": "“OTIC FORMULATIONS FOR DRUG-INDUCED OTOTOXICITY” (OTONOMY, INC., priority 2018, published 2021)", "key": {"[1]": {"system": "guinea pigs", "experiment": "Acute cisplatin-induced hearing loss (CIHL) model, ABR threshold shift", "format": "in vivo, guinea pig", "settings": "single IT SP-600125 (20 mg/ml) in P407 24 hours prior to cisplatin IP 12 mg/kg; 7 days post-treatment; 4, 8, 16 kHz; vs IT P407 vehicle", "procedure": "SP-600125 (20 mg/ml) in P407: 205.4 g of DI water were weighed. 1.1342 g of sodium chloride (Fisher Scientific) and 1.53 g of tromethamine (Fisher Scientific) were added. Solid materials were dissolved and the pH of the solution was adjusted to 7.8 with approximately 1.9 mL of 5 N HCl. 126.2 g of buffer was weighed and chilled down and 24.5 g of Poloxamer 407 (Lutrol F127, BASF) were added (e.g., sprinkled) while mixing to dissolve. The approximately 16% poloxamer solution was sterile filtered with a 0.22 μm PVDF 33 mm syringe filter. 207 mg of milled SP600125 (LC laboratories) was added, followed by […] of sterile filtered 16% Poloxamer 407 solution. The solution was then transferred to 3 mL autoclaved vials.\nFemale albino guinea pigs […] (n=6 per group) of approximately 6-8 weeks of age served as subjects for the experiments. […]\nAuditory Brainstem Response (ABR) assessment—During the procedure, additional anesthetic was administered if needed to maintain the depth of anesthesia sufficient to insure immobilization and relaxation. ABRs were recorded in an electrically and acoustically shielded chamber, one ear at a time. […] Acoustic calibration was performed with TDT software (SigCal) and thresholds were expressed as dB SPL in conditions identical to that of threshold recordings in animals. […]\nABR thresholds were determined 7 days post-treatment at 3 frequencies (4, 8, and 16 kHz)."}, "[2]": {"system": "cochlear hair cells", "experiment": "Cisplatin-induced hair cell damage in ex vivo cochlear explants", "format": "cell-based, Sprague Dawley rat", "design": "dose or concentration left out as unconfirmed", "settings": "various cisplatin concentrations, 48 or 72 hours", "excerpt": "(§1) Error bars represent ±s.e.m. unless otherwise indicated."}, "[3]": {"system": "spiral ganglion neurons (SGNs)", "experiment": "Cisplatin-induced spiral ganglion neuron damage in ex vivo cochlear explants", "format": "cell-based, Sprague Dawley rat", "design": "SGN fiber density (SGNs per 200 μm): dose or concentration left out as unconfirmed", "excerpt": "as §1"}, "[4]": {"system": "strial cells", "experiment": "Caspase 3/7 activation in dissociated strial cultures with cisplatin and antioxidants (Example B8)", "format": "cell-based, Sprague-Dawley rat", "settings": "cisplatin alone", "excerpt": "Neonatal (P2-P4) Sprague-Dawley rats were used for the experiments described here. Animals were euthanized following anesthesia using isoflurane. Rat cochleae were then dissected in cold HBSS medium enriched with glucose.\nFollowing cochlear dissection, Reissner's membrane and the lateral wall were separated and the stria vascularis was then removed from the lateral wall. Strial cells were then dissociated, seeded onto Poly-d-lysine coated 96 well plates and grown to achieve 80-90% confluency before treatment. […] After incubation, cells were lysed using the Promega caspase 3/7 Glo kit and the intensity of caspase 3/7 were read using Perkin-Elmer Enspire plate reader.\nAt this stage, cells also began to show formation of vessels (Laminin staining)."}, "[5]": {"system": "cochlear hair cells", "experiment": "Effect of solvents on cisplatin-induced hair cell toxicity in cochlear explants", "format": "cell-based, Sprague Dawley rat", "settings": "for Affect Cisplatin Toxicity: cisplatin exposed explants; for effect on cisplatin-induced hair cell toxicity: summary of Table M", "procedure": "(§2) P2-P4 Sprague Dawley rat pups were used for all experiments.\n(§3) Day 0: Dissected whole cochleae were mounted onto Cell-Tak-coated mesh inserts and incubated overnight in growth medium.\n(§4) Day 3-4: Cochlea were fixed in 4% PFA overnight then immunohistochemically processed with the following: anti-MyoVIIa (1:500), anti-Neurofilament (1:500), Phalloidin (1:250), and DAPI (1:1000).\n(§5) Z-stacks of the entire cochlea were imaged at 20x and stitched together using Zeiss Zen Black software. […] Healthy HCs and SGN fibers were counted within each box using Zeiss Zen Blue software. Error bars represent ±s.e.m. unless otherwise indicated."}, "[6]": {"system": "cochlear hair cells", "procedure": "as §2, §3, §4, §5"}, "[7]": {"system": "dissociated strial cells", "experiment": "Caspase-Glo 3/7 caspase activation in dissociated strial cultures (Example B7)", "format": "cell-based, Sprague Dawley rat", "settings": "0.5% DMSO vs 0% DMSO", "procedure": "Post cochlear dissection, Reissner's membrane and the lateral wall were gently separated from the basilar membrane with fine forceps. The stria vascularis was then pulled off the lateral wall and collected separately. Cells were then dissociated using a pipette post-trypsinization and seeded onto Poly-d-lysine-coated 96-well plates. Cells were grown for 48-72 hours to achieve 80-90% confluency before treatment. […] Following treatment, cells were exposed to the Caspase-Glo 3/7 (Promega) reagent for 30 minutes then […] was read on a plate reader.\nThe dissociated strial cells were mostly comprised of marginal cells by 24 hours in vitro."}, "[8]": {"system": "outer hair cells (OHCs)", "experiment": "Protection of outer hair cells from cisplatin-induced degeneration in cochlear explant model (Example B10)", "format": "cell-based", "settings": "1.5 hour pretreatment followed by co-treatment with 10 μM cisplatin", "procedure": "(§6) Protective effects of various otoprotectant molecules on cisplatin-induced degeneration of hair cells and spiral ganglion neurons were measured. FIGS. 19 and 20 show the quantified percent protection (normalized to naïve) graphs for outer hair cells (OHCs) and spiral ganglion neurons (SGNs)."}, "[9]": {"system": "spiral ganglion neurons (SGNs)", "experiment": "Protection of spiral ganglion neurons from cisplatin-induced degeneration in cochlear explant model (Example B10)", "format": "cell-based", "settings": "1.5 hour pretreatment followed by co-treatment with 10 μM cisplatin", "procedure": "as §6"}}, "note": "Read-outs that look alike come from different tables or passages of the source.", "data": [{"compound": "O=C1c2ccccc2-c2n[nH]c3cccc1c23", "note": "[SP-600125, anthra[1,9-cd]pyrazol-6(2H)-one]", "values": [{"measurement": "ABR threshold shift", "setting": "[1]", "result": "dramatically reduced the ABR threshold shift"}]}, {"compound": "N.N.[Cl][Pt][Cl]", "note": "[cisplatin]", "values": [{"measurement": "IHCs per 200 μm", "setting": "[2]", "result": "decreased in a dose- and exposure time-dependent manner"}, {"measurement": "OHCs per 200 μm", "setting": "[2]", "result": "decreased in a dose- and exposure time-dependent manner"}, {"measurement": "difference from base to apex in SGN susceptibility to cisplatin", "setting": "[3]; base, mid, apex regions", "result": "No significant difference"}, {"measurement": "SGN fiber density (SGNs per 200 μm)", "setting": "[3]; varying concentrations of cisplatin, 48 or 72 hours", "result": "decreases in a dose dependent manner"}, {"measurement": "caspase 3/7 activation (RLU)", "setting": "[4]", "result": "increased caspase 3/7 activation"}]}, {"compound": "PEG400", "values": [{"measurement": "Affect Cisplatin Toxicity", "setting": "[5]; solvent concentration 2%", "result": "Yes-Protection"}, {"measurement": "effect on cisplatin-induced hair cell toxicity", "setting": "[5]", "result": "reduced cisplatin-induced hair cell toxicity"}]}, {"compound": "CC(C)=O", "note": "[Acetone]", "values": [{"measurement": "HC Toxicity", "setting": "[6]; solvent concentration 1%, cochlear explants", "result": "No"}, {"measurement": "HC Toxicity", "setting": "[6]; solvent concentration 2%, cochlear explants", "result": "No"}, {"measurement": "toxicity on naive cochlear explants", "setting": "[6]; summary of Table M, all tested concentrations", "result": "no evident toxicity"}, {"measurement": "Affect Cisplatin Toxicity", "setting": "[5]; solvent concentration 1%", "result": "No"}, {"measurement": "Affect Cisplatin Toxicity", "setting": "[5]; solvent concentration 2%", "result": "No"}]}, {"compound": "CC#N", "note": "[Acetonitrile]", "values": [{"measurement": "HC Toxicity", "setting": "[6]; solvent concentration 3%, cochlear explants", "result": "Slight"}, {"measurement": "Affect Cisplatin Toxicity", "setting": "[5]; solvent concentration 3%", "result": "No"}]}, {"compound": "C[S+](C)[O-]", "note": "[DMSO, dimethyl sulfoxide]", "values": [{"measurement": "HC Toxicity", "setting": "[6]", "result": "No"}, {"measurement": "toxicity on naive cochlear explants", "setting": "[6]", "result": "no evident toxicity"}, {"measurement": "Affect Cisplatin Toxicity", "setting": "[5]; solvent concentration 0.1%", "result": "Yes-Protection"}, {"measurement": "Affect Cisplatin Toxicity", "setting": "[5]; solvent concentration 0.5%", "result": "Yes-Protection"}, {"measurement": "Affect Cisplatin Toxicity", "setting": "[5]; solvent concentration 1%", "result": "Yes-Protection"}, {"measurement": "effect on cisplatin-induced hair cell toxicity", "setting": "[5]", "result": "reduced cisplatin-induced hair cell toxicity"}, {"measurement": "effect on cisplatin-induced caspase activation (relative light units)", "setting": "[7]", "result": "reduced cisplatin-induced caspase activation"}]}, {"compound": "CCO", "note": "[Ethanol]", "values": [{"measurement": "HC Toxicity", "setting": "[6]", "result": "No"}, {"measurement": "toxicity on naive cochlear explants", "setting": "[6]", "result": "no evident toxicity"}, {"measurement": "Affect Cisplatin Toxicity", "setting": "[5]; solvent concentration 1%", "result": "No"}, {"measurement": "Affect Cisplatin Toxicity", "setting": "[5]; solvent concentration 2%", "result": "No"}, {"measurement": "Affect Cisplatin Toxicity", "setting": "[5]; solvent concentration 2.5%", "result": "No"}]}, {"compound": "O=C(OCc1ccccc1)c1ccccc1", "note": "[Benzyl benzoate]", "values": [{"measurement": "HC Toxicity", "setting": "[6]", "result": "No"}, {"measurement": "toxicity on naive cochlear explants", "setting": "[6]", "result": "no evident toxicity"}, {"measurement": "Affect Cisplatin Toxicity", "setting": "[5]; solvent concentration 0.5%", "result": "No"}, {"measurement": "Affect Cisplatin Toxicity", "setting": "[5]; solvent concentration 1%", "result": "No"}]}, {"compound": "Nc1nc2nc[nH]c2c(=S)[nH]1", "note": "[6-thioguanine]", "values": [{"measurement": "percent protection (normalized to naïve) of outer hair cells", "setting": "[8]", "result": "almost complete protection"}, {"measurement": "percent protection (normalized to naïve) of spiral ganglion neurons", "setting": "[9]", "result": "complete protection"}]}, {"compound": "CN1CCCC1=O", "note": "[N-Methyl-2-pyrrolidone]", "values": [{"measurement": "HC Toxicity", "setting": "[6]", "result": "Yes"}]}]}
